This is an account of results in US20160130224A1, “Novel Pyrrole Derivatives” (priority 2013, published 2016).

The target in data set [1] is T1, pneumolysin (Streptococcus pneumoniae serotype 2, UniProt Q04IN8). The data set can be described thus: Inhibition of the haemolytic activity of pneumolysin (sheep erythrocytes). The class given is cell-based. Conditions: pneumolysin at LD100, sheep erythrocytes, 37° C., read-out: IC50. On the procedure:
The basis of this assay is that when pneumolysin is added to red blood cells, it induces their lysis and leads to the release of haemoglobin. In the presence of an inhibitory compound, pneumolysin-induced lysis is abolished, the red blood cells pellet at the bottom of the microtitre plate well and the supernatant is clear. However, if the compound is not inhibitory, the red blood cells are lysed and haemoglobin is released into the supernatant.
Test compound solutions (typically at 5 mM in DMSO) were diluted 1:1 in 100% DMSO. The compounds were then two-fold serially diluted in 100% DMSO across 11 wells of 96-well round-bottomed microtitre plate. PBS was then added to all the wells to achieve a 1:10 dilution of the compound in PBS. Pneumolysin was then added at a concentration equal to its LD100. Plates were then incubated at 37° C. for 30-40 min. After the incubation period, an equal volume of 4% (v/v) sheep erythrocyte suspension was added to each well and the plates incubated again at 37° C., for at least 30 min. Controls with only erythrocytes in PBS (control for no lysis) or erythrocytes plus pneumolysin (control for lysis) were prepared following the same procedure. Following the incubation with the erythrocytes, the Absorbance at 595 nm of each well was measured and the data used to determine the IC50 for each test compound. The IC50 values were determined using non-linear regression curve fitting. For that, the Log of the concentrations of the test compound was plotted against the percentage inhibition, estimated from the A595 values, followed by fitting a Hill Slope to the data.

Data set [2] concerns the target T1, pneumolysin. The experiment in a line: Inhibition of pneumolysin-induced lactate dehydrogenase (LDH) release from A549 human lung epithelial cells. It counts as cell-based. As to the method:
Pneumolysin induces the release of lactate dehydrogenase (LDH) from human monocytes and lung epithelial cells: a phenomenon that is indicative of plasma membrane damage or rupture [Infect. Immun. (2002) 70 1017-1022].
Human lung epithelial cells (A549) were seeded in flat-bottomed 96-well tissue culture plates and grown in RPMI 1640 medium supplemented with Glutamine, at 37° C., 5% CO2, for 24 h.
Before use, the cells were washed with PBS. Test compound dilutions were incubated with pneumolysin as described in Section A, then transferred to wells containing the human lung epithelial cells and the plates were incubated at 37° C., 5% CO2, for 30 min. The following controls were included on the plate (1) Negative controls, called low control (PBS only) to measure the natural release of LDH from the cells in culture, (2) positive controls (1% (v/v) Triton-X in PBS) to measure the maximum release of LDH from the cells (3) Pneumolysin solution only to measure pneumolysin-induced LDH release, (4) Test compound solution to assess the toxicity of the compound alone. […] Absorbance at 490 nm and 655 nm was then measured. The percentage of LDH release induced by pneumolysin in the presence and absence of test compounds was plotted against the Log of the concentration of the compound and the IC50 was determined, as described above in the inhibition of haemolysis assay, Section A.

For data set [3], the target named is T1, pneumolysin. The experiment in a line: Ex vivo meningitis assay: effect of pneumolysin on ciliary function of cultured ependymal cells. It counts as cell-based. Conditions: rat ependymal cells; compound 1.56 μM; recorded over 30 min; FIG. 2. An excerpt: The ependymal ciliated cells line the cerebral ventricles of the brain and the central canal of the spinal cord and are covered with cilia responsible for the circulation of the cerebrospinal fluid (CSF) around the central nervous system. This layer acts as a selective brain barrier to and from the cerebrospinal fluid and plays a role in controlling the CSF volume. To study if the inhibitors prevent the damage caused by pneumolysin on the ependymal layer, a rat ex vivo model of meningitis was used. This model is based on culturing and differentiating ciliated ependymal cells from neonate rat brains, which recreate the in vivo situation, where cells lining the brain ventricles, are exposed to S. pneumoniae and its toxic products.
Ependymal cell cultures were prepared by the method previously described [Microb. Pathog. (1999) 27 303-309]. Tissue culture trays were coated with bovine fibronectin and incubated at 37° C. in 5% (v/v) CO2 for 2 h before use. […]
After approximately two weeks, the cells were fully ciliated and ready for experiments. […] Beating cilia were recorded before and after exposure over 30 min, with a digital high-speed video camera at a rate of 500 frames/s. The recorded video sequences were played back at reduced frame rates and the ciliary beat frequency (CBF) was determined by the following equation: […]

The nature of data set [4]: Solubility testing in PBS or 0.9% saline. It counts as physicochemical. Conditions: result in words. As to the method: Solubility studies were performed by charging a vial with 5-10 mg of compound followed by the 40 addition of PBS solution or 0.9% saline to achieve a concentration of 100 mg/ml. If solubility was not observed the solution was diluted to concentrations of 50 mg/ml, 25 mg/ml and 4 mg/ml consecutively until complete solubility was observed.

Data set [5] in a line: Chemical stability assessment in PBS at 37.5° C. (HPLC). It counts as physicochemical. The note with it: buffer, pH 6.2, read-out: Chemical stability at pH 6.2-7.2 (t1/2) (converted). On the procedure: Stability studies were carried out by dissolving 1-2 mg of compound in DMSO (1 mL) followed by addition of 0.4 mL of the resulting solution to stirred PBS solution (9.6 mL) at 37.5° C. A sample (ca. 0.5 mL) was immediately taken for HPLC analysis. Further samples were then taken for analysis at various timepoints thereafter. Half-lives were determined from the decrease in concentration of compound with respect to time.
Stability studies were performed by dissolving 1-2 mg of compound in DMSO (1 ml) followed by addition of 0.4 ml of the resulting solution to stirred PBS (9.6 ml) at 37.5° C. A sample (˜0.5 ml) was immediately taken for HPLC analysis. Further samples were then taken for analysis at various time-points thereafter. Half-lives were determined from the decrease in concentration of compound with respect to time.

T1 sequence (Q04IN8 whole entry): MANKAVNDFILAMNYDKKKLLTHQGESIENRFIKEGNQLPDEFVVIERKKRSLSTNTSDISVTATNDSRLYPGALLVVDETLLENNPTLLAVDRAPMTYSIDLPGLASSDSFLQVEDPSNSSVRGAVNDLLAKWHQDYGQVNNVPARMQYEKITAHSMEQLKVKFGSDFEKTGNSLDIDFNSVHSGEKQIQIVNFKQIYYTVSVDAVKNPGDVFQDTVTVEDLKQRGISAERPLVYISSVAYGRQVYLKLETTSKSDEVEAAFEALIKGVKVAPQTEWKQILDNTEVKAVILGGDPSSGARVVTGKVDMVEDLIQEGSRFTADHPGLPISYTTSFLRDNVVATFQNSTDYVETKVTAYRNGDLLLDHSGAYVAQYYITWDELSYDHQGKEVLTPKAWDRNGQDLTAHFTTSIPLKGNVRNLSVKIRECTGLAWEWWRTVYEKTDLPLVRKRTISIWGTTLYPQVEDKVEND

In the case of `COc1ccc(-n2c(C(=O)N(C)C)c(O)c(O)c2C(=O)N(C)C)cc1` [UL1-005, 3,4-Dihydroxy-1-(4-methoxyphenyl)-N^2,N^2,N^5,N^5-tetramethyl-1H-pyrrole-2,5-dicarboxamide], the IC50 was 200 nM in data set [1] (Table 1), 200 nM in data set [1] (Table 2) and below 490 nM in data set [2]. For the same compound, the “Ciliary beating frequency (CBF) in the presence of pneumolysin” value in data set [3] is recorded as “No significant loss of the CBF”. Also, the “Solubility in 0.9% (w/v) saline, pH 6.5 or PBS pH 7.2” value in data set [4] is “Not soluble”. Also, the half-life in data set [5] is below 30 min.

For orientation: IC50 means the point on the concentration scale where inhibition reaches its midpoint.
